Experimental data reported in patent US7601494B2, “Method of screening candidate compounds for susceptibility to biliary excretion” (The University of North Carolina at Chapel Hill, priority 1999, dated 2009).

Assays:
[1] = tested on: Mrp2; test: Immunoblot analysis of Mrp2 expression in siRNA-treated SCRH; format: cell-based, rat; details: vs siFL-transfected and non-transfected cells
Method: (§1) HepG2 cells were maintained in Dulbecco's modified Eagle's medium/F-12 plus 10% FBS. Rat hepatocytes were isolated from male Wistar rats (220-300g) by in situ collagenase perfusion (Annaert et al., Drug Metab Dispos 29:1277-1283, 2001). Cells were seeded at a density of 1.5×10^6 cells per well onto polystyrene 6-well plates pre-coated with rat tail type I collagen; a top layer of gelled collagen was overlaid 24 hr after plating. Rat hepatocyte cultures were maintained in Dulbecco's modified Eagle's medium supplemented with 0.1 μM dexamethasone and 0.1% ITS culture supplement (6.25 mg/mL insulin, 6.25 mg/mL transferrin, 6.25 μg/mL selenous acid, 5.35 mg/mL linoleic acid, and […]). Medium was changed every 24 hr.
(§2) HepG2 cells were seeded at a density of 2×10^5 cells per well onto 12-well plates 24 hr before transfection. A mixture of 100 ng firefly luciferase expression plasmid (PGL3-FL) and 100 ng Renilla luciferase expression plasmid (PRL-TK) and various amounts of firefly luciferase siRNA were used per well. Transfections of SCRH were performed at 20 hr after plating, unless specifically indicated. siRNA (2 μg unless specified) was used per well in 6-well plates. siRNA and DNA were formulated for transfection using […]™ transfection reaction kit (QIAGEN Inc. Valencia, Calif. USA). Briefly, siRNA was condensed in Enhancer EC at a ratio of 1:2 (μg of total RNA and/or DNA : μl of Enhancer), and formulated with TransMessenger at a ratio of 1:4 (μg of RNA and /or DNA: μl of TransMessenger) and then incubated with cells. For transfections of HepG2 cells, medium was changed after an overnight incubation with siRNA. For transfections of SCRH, cells were incubated with siRNA for 4 hr and then were overlaid with collagen. siRNA delivery into hepatocytes was more efficient before overlay of the top collagen layer. The effect of transfection was examined 48 hr later.
(§3) Cells were harvested 48 hr post transfection and lysed in 1% SDS, 1 mM EDTA plus COMPLETE™ protease inhibitor cocktail (Roche Diagnostics, Mannheim, Germany). The protein concentration of the clear cell lysate was determined with the BCA Protein Assay Reagent Kit (Pierce Biotech, Inc. Rockford, Ill.). […] of total protein per lane was resolved by electrophoresis on NuPAGE 4-12% Bis-Tris Gel (Invitrogen Life Technology, Carlsbad, Calif. USA) and were transferred onto polyvinylidone difluoride membranes. The following antibodies were used to probe the membranes: anti-Mrp2 (M2111-6, Alexis Biochemicals, San Diego, Calif. USA); anti-Mrp3 (kind gift from Dr. Yuichi Sugiyama); anti-Radixin (Chemicon International, Inc. Temecula, Calif. USA), anti-β-actin (MAB1501, Chemicon).

[2] = tested on: Mrp3; test: Immunoblot analysis of Mrp3 expression in siRNA-treated SCRH; format: cell-based, rat; details: vs siFL-transfected and non-transfected cells
Method: as §1, §2, §3

[3] = tested on: SCRH; test: Lactate dehydrogenase activity assay of culture medium of SCRH; format: cell-based, rat; details: after three days in culture, mean±SEM
Method: Prior to the functional studies, cell culture medium was assayed for lactate dehydrogenase activity, an intracellular enzyme whose leakage into extracellular medium is inversely related to cell viability. Lactate dehydrogenase activity was assayed with kit 500-C (Sigma Diagnostics, St. Louis, Mo. USA) utilizing lactate dehydrogenase-catalyzed reduction of pyruvate to lactate, subsequent conjugation of remaining pyruvate with 2,4-dinitrophenylhydrazine, and spectrophotometric detection (λ=500 nm) of the pyruvate-2,4-dinitrophenylhydrazone conjugate at alkaline pH (Cabaud and Wroblewski, Am. J. Clin. Pathol. 30:234-236,1958).

[4] = molecular target: T1, Mrp3 (Rattus norvegicus, UniProt O88563); test: Assessment of Mrp3 function with CDF disposition in siMrp3-treated SCRH (30 min washout); format: cell-based
T1 construct: endogenous in cells; host or cells: sandwich-cultured primary hepatocytes of male Wistar rats
Method: Cells were rinsed twice with Hanks' balanced salt solution (HBSS, 2 mL, 37° C.) and incubated (10 min, 1.5 mL, 37° C.) with 2 μM CDF diacetate (Molecular Probes, Eugene, Oreg. USA), and were then rinsed twice with cold HBSS (2 mL, 4° C.). Cell images were taken with a Axiovert 100TV inverted microscope. Accumulation of CDF in cells+bile canaliculi and cells only was assessed in SCRH pre-incubated (10 min, 2 mL, 37° C.) with standard HBSS and Ca^2+-free HBSS, respectively (Liu et al., J. Pharmacol. Exp. Ther. 289:1592-1599, 1999). SCRH were subsequently incubated with CDF diacetate (10 min, 2 mL, 37° C.). In siMrp2-treated SCRH, cells were then rinsed four times with cold HBSS (2 mL, 4° C.) and lysed (1 mL, 0.5% TritonX-100 in phosphate-buffered saline). In siMrp3-treated SCRH, following incubation with CDF diacetate, cells were rinsed four times with warm HBSS (2 mL, 37° C.) and were incubated with HBSS (30 min, HBSS changed every 10 min, 2 mL, 37° C.) to allow time for intracellular CDF to undergo appreciable basolateral excretion prior to rinsing the SCRH four times with cold HBSS and lysing the cells (as above). CDF fluorescence in lysate was quantified with fluorescence spectrophotometry (λex=485 nm, λem=[…]); protein concentration was determined with the BCA method kit (as above).

T1 sequence (O88563 whole entry): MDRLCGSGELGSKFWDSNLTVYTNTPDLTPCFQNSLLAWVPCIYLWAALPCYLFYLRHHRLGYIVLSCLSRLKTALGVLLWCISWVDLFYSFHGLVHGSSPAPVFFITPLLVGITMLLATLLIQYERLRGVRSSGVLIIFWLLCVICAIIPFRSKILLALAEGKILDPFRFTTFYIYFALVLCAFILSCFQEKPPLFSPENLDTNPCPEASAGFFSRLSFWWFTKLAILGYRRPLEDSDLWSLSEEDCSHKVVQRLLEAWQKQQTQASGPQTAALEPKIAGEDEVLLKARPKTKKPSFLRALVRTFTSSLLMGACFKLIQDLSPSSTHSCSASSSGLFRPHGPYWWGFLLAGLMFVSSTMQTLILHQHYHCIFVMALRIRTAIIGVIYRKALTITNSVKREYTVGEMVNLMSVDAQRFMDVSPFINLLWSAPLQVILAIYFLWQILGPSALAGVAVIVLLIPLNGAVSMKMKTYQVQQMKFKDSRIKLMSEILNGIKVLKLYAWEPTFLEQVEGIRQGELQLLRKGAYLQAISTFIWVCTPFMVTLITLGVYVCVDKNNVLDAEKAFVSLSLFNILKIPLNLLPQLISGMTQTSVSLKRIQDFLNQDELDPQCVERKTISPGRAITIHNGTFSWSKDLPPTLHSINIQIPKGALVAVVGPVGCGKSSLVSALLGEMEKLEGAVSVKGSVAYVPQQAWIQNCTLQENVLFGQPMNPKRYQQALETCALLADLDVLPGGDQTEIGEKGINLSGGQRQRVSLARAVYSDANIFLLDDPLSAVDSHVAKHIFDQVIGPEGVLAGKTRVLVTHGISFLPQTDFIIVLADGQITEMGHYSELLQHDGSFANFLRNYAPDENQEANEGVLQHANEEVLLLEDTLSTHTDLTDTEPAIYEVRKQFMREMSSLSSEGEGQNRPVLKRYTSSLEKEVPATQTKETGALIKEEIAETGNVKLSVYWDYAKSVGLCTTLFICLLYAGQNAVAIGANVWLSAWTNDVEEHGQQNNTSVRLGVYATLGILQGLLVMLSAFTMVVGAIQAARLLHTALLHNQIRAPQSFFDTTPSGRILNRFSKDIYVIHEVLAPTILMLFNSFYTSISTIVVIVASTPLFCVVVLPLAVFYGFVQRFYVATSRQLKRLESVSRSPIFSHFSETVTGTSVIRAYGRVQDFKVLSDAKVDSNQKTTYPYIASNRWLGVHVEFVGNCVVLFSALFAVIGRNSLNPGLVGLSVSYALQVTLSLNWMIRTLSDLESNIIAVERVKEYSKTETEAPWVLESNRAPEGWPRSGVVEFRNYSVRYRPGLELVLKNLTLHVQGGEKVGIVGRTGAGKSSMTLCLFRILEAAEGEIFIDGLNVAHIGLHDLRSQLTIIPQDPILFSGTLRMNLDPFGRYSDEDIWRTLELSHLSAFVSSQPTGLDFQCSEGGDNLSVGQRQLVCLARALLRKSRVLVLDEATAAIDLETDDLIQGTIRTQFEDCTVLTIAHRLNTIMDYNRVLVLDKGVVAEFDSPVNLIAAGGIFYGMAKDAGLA

## siMrp3: siRNA targeting rat Mrp3, GGUCCAAGGACCUGCCUCCCA (SEQ ID NO: 6), nucleotides 1950-1970 of Mrp3 cDNA (listed as RNA, chemistry not given here)
[1]
  expression of Mrp2 (in words): no change in expression of Mrp2
[2]
  Mrp3 protein expression (in words): a decrease in Mrp3 protein expression
[3]
  lactate dehydrogenase activity: 87±3 % non-transfected control SCRH
[4]; transfected SCRH, after 30 min washout, vs control
  increase of biliary excretion index of CDF: ~60%
[4]; transfected SCRH, after 30 min washout, control 36.2%
  biliary excretion index of CDF: 57.5%
[4]; transfected SCRH, after 30 min washout, non-transfected control 15.6±4.0
  CDF accumulation in cells only: 13.7±2.2 pmol/mg protein/10 min
[4]; transfected SCRH, after 30 min washout, non-transfected control 24.4±4.3
  CDF accumulation in cells+bile canaliculi: 32.3±2.5 pmol/mg protein/10 min
[4]; vs siFL-transfected or non-transfected cells
  CDF fluorescence in canalicular networks (in words): more intense
